Laboratory results taken from a compilation of properties of binary mixtures (doi:10.1016/j.molliq.2014.09.055).

Assay: xn = mol fraction of the nth substance listed
Settings: 101 kPa

CCOS(=O)(=O)[O-].CC[n+]1ccn(C)c1 + CC(=O)O
x2 = 0
Settings	speed of sound [m/s]
293.15 K	1693.1
298.15 K	1680.8
303.15 K	1668.5

CCOS(=O)(=O)[O-].CC[n+]1ccn(C)c1 + CCC(=O)O
x2 = 0
Settings	speed of sound [m/s]
293.15 K	1693.1
298.15 K	1680.8

CC(=O)O + CCOS(=O)(=O)[O-].CC[n+]1ccn(C)c1
speed of sound [m/s]
Settings	293.15 K	298.15 K	303.15 K	308.15 K	313.15 K
x1 = 0.0978	–	–	1656.4	1644.2	–
x1 = 0.1993	–	1651.5	1639	1626.6	1614.3
x1 = 0.308	1644.8	1632.2	1619.5	1606.9	1594.4
x1 = 0.4031	1622.3	–	1596.6	–	–
x1 = 0.4737	1603.2	1590.2	1577.1	1564	1551.1
x1 = 0.5975	1560.5	1547.1	1533.6	1520.1	–
x1 = 0.701	1510.8	1497	1483.1	1469.2	1455.5
x1 = 0.8057	–	–	–	1394.1	1379.8
x1 = 0.8973	1339.1	1324	–	1293.3	1278
x1 = 0.9512	–	1237.2	1221	1204.9	1188.8
x1 = 1	1152.7	–	1118.4	1101.2	1084

CCC(=O)O + CCOS(=O)(=O)[O-].CC[n+]1ccn(C)c1
speed of sound [m/s]
Settings	293.15 K	298.15 K	303.15 K	308.15 K	313.15 K
x1 = 0.0818	–	1665.8	1653.5	1641.2	1629.1
x1 = 0.1678	1659.4	1647	1634.6	1622.2	1609.9
x1 = 0.2655	1635.9	–	1610.7	–	1585.6
x1 = 0.3539	1611.6	1598.8	1585.9	–	1566
x1 = 0.4224	1590.3	1577.4	1564.4	1551.4	1538.5
x1 = 0.5516	1542.7	1529.4	1515.9	1502.5	1489.2
x1 = 0.6556	1494.8	1481	1467	1453.1	1439.4
x1 = 0.7707	1421.7	1407.2	1392.4	1377.8	1363.3
x1 = 0.8774	1320.2	1304.5	1288.6	1272.8	–
x1 = 0.9405	1240.4	1223.4	1206.2	–	1172.3
x1 = 1	1164.7	1146	1127.1	1108.3	1089.6
